Values of other authors as cited in patent publication US20130237476A1, “ADIPOSE TISSUE TARGETED PEPTIDES” (ABLARIS THERAPEUTICS INC., priority 2012, published 2013).
Where no end group is shown, it is not given here. [ ]: non-standard residue; d: D form. Ex = not defined here

How the values were obtained:
[1] = diastereomeric peptide with 5th and 9th residues as L-analogs; comparator not stated
[2] = tested on: visceral adipose tissue (white fat)
prohibitin = settings: Kolonin et al., Nat Med 2004; prohibitin expressed in adipose tissue

In the case of “D,L-(KExAKExAK)2 (K[Ex]AK[Ex]AKK[Ex]AK[Ex]AK; reading uncertain; also: D/L diastereomeric residues, positions not given here) [diasteriomeric peptide in which the 5th and 9th residues were replaced with L-analogs to disrupt alpha helicity]”, the hemolytic activity [1] is given as “greatly reduced”.
For “CKGGRAKDC-GG-D(KLAKLAKKLAKLAK) (CKGGRAKDCGG[dK][dL][dA][dK][dL][dA][dK][dK][dL][dA][dK][dL][dA][dK]; cysteine pairing not given here) [ABL-1, targeting peptide operably linked to an apoptotic therapeutic peptide]”, the obesity reversal ([2]; animal models, after resorption of established white fat) is given as “rapid obesity reversal” and the “ablation of visceral adipose tissue” value ([2]; targets prohibitin in adipose vascular endothelial cells) is given as “cause ablation of visceral adipose tissue”.
For CKGGRAKDC [adipose targeting peptide], the association with prohibitin (prohibitin) is given as “associates with prohibitin”.
